Results reported in US20030133920A1, “Koji molds for preparing cholesterol lowering products” (priority 2000, published 2003).

Columns and labels:
[1] = test system: cholesterol synthesis in human hepatic T9A4 cells; experiment: Inhibition test for cholesterol synthesis, 14C-acetate incorporation into cholesterol; type: cell-based; conditions: 1 mM 14C-acetate, 20 h, liquid fermentation extracts, extract concentration in the medium per row (37-70 μg/ml; lovastatin 0.5 μg/ml)
Description: (§1) The human hepatic T9A4 cells were grown in the serum-free LCM medium (Biofluids, Rockville, Md., USA) under 3.5% CO2 at 37° C. The cells were seeded into 24 well plates and incubated at confluency with 1 mM ^14C-acetate (1 mCi/mmol, Amersham) for 20 h in the absence (control) or in the presence of the fermented extract fractions. Cells were also incubated with 1.17 mM ^14C-mevalonate (0.85 mCi/mmol, Amersham) for 20 h in order to evaluate whether the compounds stemming from the microorganisms to be tested have an inhibitory effect downstream the HMGCoA/Mevalonate conversion step.
(§2) Lipid extraction was performed twice by incubation with hexane:isopropanol (3:2) for 30 min at room temperature. The combined extracts were dried under N2, redissolved in hexane and subjected to high performance thin layer chromatography (Merck, Darmstadt, Germany) in a solvent mixture of hexane:diethyl ether:acetic acid (75:25:1). The neo-synthesis of cholesterol was determined by measuring the ^14C-acetate incorporation into the cholesterol with an instant imager (Camberra Packard, Zurich, Switzerland) and expressed as percent of the control.

[2] = test system: cholesterol synthesis in human hepatic T9A4 cells; experiment: Inhibition test for cholesterol synthesis in presence of 14C-mevalonate (downstream of HMGCoA/mevalonate step); type: cell-based
Description: as §1, §2

CC[C@H](C)C(=O)O[C@H]1C[C@@H](C)C=C2C=C[C@H](C)[C@H](CC[C@@H]3C[C@@H](O)CC(=O)O3)[C@H]21 [LOVASTATIN, lovastatin]
inhibition at 0.5 µg/mL [1]: 56% | inhibitory effect on cholesterol biosynthesis (in words) ([2]; T9A4 cells, in presence of 14C-mevalonate): does not inhibit cholesterol biosynthesis | inhibition at 0.5 µg/mL ([2]; human hepatic T9A4 cells, 1.17 mM 14C-mevalonate, 20 h, extract concentration in the medium per row (37-50 μg/ml; lovastatin 0.5 μg/ml)): 0%
